This note sets out measurements from patent US7132547B2, “Preventives/remedies for urinary disturbance” (priority 2001, dated 2006).

Counter-ions that a name gives are not always drawn.

The target of data set [1] is T1, human erythrocyte-derived acetylcholinesterase (Homo sapiens, UniProt P22303).
T1 construct: Human erythrocyte-drived acetylcholinesterase (Sigma) was dissolved in distilled water; purchased Sigma; host or cells: human erythrocytes (natural source)
The data set is described as follows: Measurement of acetylcholinesterase inhibitory activity (acetylthiocholine / Ellman method). The data set is classed as biochemical. The settings on record: 50% inhibition concentration, repeated at least three times, read-out: AchE: IC50. Here is the method: a) Measurement of Acetylcholinesterase Inhibitory Activity
Acetylcholinesterase inhibitory activity of Example compounds was measured using human erythrocyte-derived acetylcholinesterase by an acetylthiocholine method (Ellman method).
Human erythrocyte-drived acetylcholinesterase (Sigma) was dissolved in distilled water to the concentration of 0.2 IU/mL to obtain an enzyme specimen. 20 μL of a drug solution, 30 μL of 80 mM Tris-HCL (pH 7.4), 50 μL of an enzyme specimen and 50 μL of 5 mM 5,5-dithio-bis (2-nitrobenzoic acid)(Sigma) were dispensed on a 96-well microplate, and this was shaken for 10 seconds. 50 μL of 4 mM acetylthiocholine iodide (Sigma) was added, this was shaken again and, immediately after, increase in absorbance at 414 nm was measured at 30 second intervals for 10 minutes. Enzyme activity was measured by the following equation: R=5.74×10^−7×ΔA (wherein R represents enzyme activity (mol), and ΔA represents increase in absorbance at 414 nm)
Regarding each compound, the experiment was repeated at least three times to obtain 50% inhibition concentration (IC50). According to the similar method to the above-mentioned, acetylcholinesterase inhibitory activity of distigmine which is a known acetylcholinesterase inhibitor was measured.

Data set [2] deals with T2, human adrenaline α1A receptor (Homo sapiens, UniProt P35348).
T2 construct: expressed in transfected cells; membrane fraction
T2 sequence (P35348 1-466): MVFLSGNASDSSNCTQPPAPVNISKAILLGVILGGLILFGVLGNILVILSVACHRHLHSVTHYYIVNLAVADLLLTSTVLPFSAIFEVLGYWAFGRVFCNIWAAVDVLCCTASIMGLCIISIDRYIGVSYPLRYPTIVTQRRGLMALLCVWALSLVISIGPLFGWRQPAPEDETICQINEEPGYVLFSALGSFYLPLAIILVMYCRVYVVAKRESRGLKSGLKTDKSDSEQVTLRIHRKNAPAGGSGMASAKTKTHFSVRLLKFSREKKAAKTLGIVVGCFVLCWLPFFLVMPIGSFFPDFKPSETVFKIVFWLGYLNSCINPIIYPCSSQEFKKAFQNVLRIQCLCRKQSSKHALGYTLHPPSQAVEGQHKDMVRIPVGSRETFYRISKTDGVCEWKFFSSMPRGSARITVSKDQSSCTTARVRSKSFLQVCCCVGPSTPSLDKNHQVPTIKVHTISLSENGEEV
Nature of the data set: Measurement of α1A receptor binding inhibitory activity ([3H]-Prazosin binding to CHO-K1 membrane fraction). The settings on record: concentration reducing [3H]-Prazosin (2.5 nM) binding to the membrane fraction to 50%. Here is the method:
b) Measurement of α1A Receptor Binding Inhibitory Activity
The following gene manipulation method was carried out according to the method described in a textbook (Miniatis et al., Molecular Cloning, Cold Spring Harbor Laboratory, 1989) or the method described in protocol attached to a reagent.
(i) Preparation of Expression Plasmid for Human Adrenaline α1A Receptor
An adrenaline α1A receptor gene was cloned from a human liver cDNA by a PCR method. A PCR reaction was performed with Gene Amp PCR System 9700 (Applied Biosystems) using 200 ng of a human liver cDNA library (TAKARA SHUZO Co., Ltd.) as a template and using TaKaRa Pyrobest DNA Polymerase (TAKARA SHUZO CO., Ltd) and adding each 50 pmol of a primer set 5′-[…]-3′ [SEQ ID No.: 1] and 5′-[…]-3[SEQ ID No.: 2] prepared making reference to a nucleotide sequence of an adrenaline α1A receptor gene which was reported by Hirasawa A. et al. (Biochem. Biophys. Res. Commun., 195, 902–909(1993)) (reaction condition: 45 cycles of 15 seconds at 94° C., and 3 minutes 30 seconds at 68° C.).
The obtained PCR fragment was digested with restriction enzymes Eco RI (TAKARA SHUZO Co. Ltd.) and Sal I. (TAKARA SHUZO Co. Ltd.), and agarose gel electrophoresis was performed to recover DNA fragments. The DNA fragments were mixed with an animal cell expression plasmid pMSR αneo (Administration No. A99–0013) which had been digested with Eco RI and Sal I, ligated with DNA Ligation Kit Ver. 2 (TAKARA SHUZO Co. Ltd.), and a competent cell of Esherichia coli JM109 was transformed to obtain a plasmid pMSR αneoA dreα1A.
(ii) Introduction of Plasmid for Expression of Human Adrenaline α1A Receptor into CHO-K1 Cell and Preparation of Membrane Fraction
CHO-K1 cells which had been subcultured in a 150 cm^2 culturing flask (Corning Coaster) using Ham F12 medium (Invitrogen) containing 10% fetal bovine serum (TRACE SCIENTIFIC) was peeled with 0.5 g/L trypsin-0.2 g/L EDTA(Invitrogen), cells were washed with D-PBS(−) (Invitrogen), centrifuged (1000 rpm, 5 min.), and suspended in D-PBS(−). […]

For data set [3], the system named is Hartley male guinea pigs loaded with phenylephrine. Nature of the data set: Pressure Flow Study using guinea pigs loaded with phenylephrine. The settings on record: i.v., tamsulosin 0.01 mg/kg, Example 20 0.1 mg/kg, urethane-anesthetized, phenylephrine 3 μg/animal/min. The data set is classed as in vivo, guinea pig. As for the experimental part: Hartley male guinea pigs (Slc) weighing 300 to 350 g was anesthetized with urethane (1.2 g/kg, i.p.), and a median was incised to expose bladder. Two polyethylene tubes were inserted into bladder, and one of them was used for injecting a physiological saline and the other was used for measuring a bladder internal pressure. A cannulae was inserted into a left femoral vein, and phenylephrine was continuously administered intravenously at 3 μg/animal/min until the completion of experiment. A physiological saline was injected into bladder at a rate of 0.3 mL/min, and injection was stopped when urination was confirmed. The urinated urine weight was measured with an electron balance (HX-400, A & D) at real time. Analogue data of bladder internal pressure and urine weight were inputted into an AD transducer (MP-100, BIOPAC Systems), and digital signals were analyzed with exclusive analyzing software (AcqKnowledge 3.5.3, BIOPAC Systems). The sampling rate of data was 10 Hz, and data of urination amount and urine flow rate were subjected to a lowcut filter at 0.5 Hz in order to remove noises. The value of urine weight was differentiated to calculate urine flow rate (Q), and maximum urine flow rate (Qmax) at urination and bladder internal pressure (Pves (Qmax)) at maximum urine flow were calculated. The urination weight 1 g was converted into 1 mL to calculate the urination amount, and divided by bladder volume to obtain voiding efficiency (Voiding Efficiency). Example compound was dissolved in DMSO, and the solution was intravenously administered at 0.5 mL/kg. 10 minutes after administration of test compound, urinary reflection was recorded again, and change in urine flow rate (ΔQmax), and change in bladder internal pressure (ΔPves(Qmax)) and voiding efficiency were assessed. The change in urine flow rate (ΔQmax) and change in bladder internal pressure (ΔPves. (Qmax)) were an amount of change (Δ value) obtained by subtracting each value before administration of test compound from each value after administration, and voiding efficiency was assessed by a relative value (% of pre-value) of after administration of test compound relative to before administration. Tamsulosin which is a known α1 receptor antagonist was measured similarly. A significance diffenence was tested by a Dunnett test by comparing with each value of a vehicle (DMSO)-administered group.

Data set [4] has as its system Hartley male guinea pigs. The data set is described as follows: Effect on blood pressure in anesthetized guinea pigs. In kind it is in vivo, guinea pig. Here is the method: Hartley male guinea pigs (Slc) weighing 300 to 350 g was anesthetized with urethane (1.2 g/kg), and retained, a cervical region was incised to expose a left common carotid artery. A polyethylene tube filled with physiological saline containing heparin (10 U.I./ml) was inserted into an artery, and blood pressure was measured with a pressure transducer. A cannulae for administering test compound was inserted into a vein at an end of left hind leg, and a test compound dissolved in distilled water was administered therethrough at 0.5 mL/kg. The blood pressure was recorded at 20 Hz using an analogue data inputting apparatus (MP-100, BIOPAC Systems), and analyzed by analyzing software (AcqKnowledge 3.5.3, BIOPAC Systems). Example compound and tamsulosin were studied for a dose at which effects were recognized in the aforementioned test a (Pressure Flow Study), and an average blood pressure just before administration of test compound and an average blood pressure 15 minutes after administration were measured. Data were statistically treated by Paired t-test.

The mark [5] stands for this setting: 10 minutes after administration minus before.

T1 sequence (P22303 32-617 isoform P22303-2 limits assumed): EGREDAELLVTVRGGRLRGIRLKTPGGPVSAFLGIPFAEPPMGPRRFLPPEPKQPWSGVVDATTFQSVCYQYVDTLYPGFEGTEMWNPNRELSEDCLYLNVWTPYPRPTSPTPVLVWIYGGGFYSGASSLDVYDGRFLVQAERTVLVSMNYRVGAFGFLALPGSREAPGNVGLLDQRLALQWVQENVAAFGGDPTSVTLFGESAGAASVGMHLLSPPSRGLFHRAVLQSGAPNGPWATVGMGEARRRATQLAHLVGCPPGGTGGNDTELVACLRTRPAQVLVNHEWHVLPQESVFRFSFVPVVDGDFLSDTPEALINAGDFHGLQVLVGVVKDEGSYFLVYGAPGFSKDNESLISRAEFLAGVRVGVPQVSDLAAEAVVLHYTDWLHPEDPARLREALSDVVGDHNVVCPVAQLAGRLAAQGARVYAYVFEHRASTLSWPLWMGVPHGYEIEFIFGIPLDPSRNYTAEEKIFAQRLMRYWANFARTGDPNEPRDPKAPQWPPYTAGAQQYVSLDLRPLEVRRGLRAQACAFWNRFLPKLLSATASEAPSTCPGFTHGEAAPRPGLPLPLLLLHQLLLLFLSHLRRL

Take `Cl.O=C(CCCCNCCc1ccccc1)c1cc2c3c(c1)CCN3C(=O)CC2`: the melting point was in the range of 166 to 168 °C.

`Cl.O=C1CCc2cc(C(=O)[C@H]3CC[C@H](CNCCc4ccccc4Cl)CC3)cc3c2N1CC3`: the melting point amounted to 271 °C.

`CN(CCCCC(=O)c1ccc2c(c1)CNC(=O)N2)CCc1ccccc1Cl.Cl`: the melting point was 192 to 195 °C (dec.).

Turning to `Cl.O=C(CCCN1CCCc2ccccc2C1)c1cc2c3c(c1)CCN3C(=O)CC2`, the melting point fell in the range of 230 to 232 °C.

The molecule `COc1ccccc1CCNCCCCC(=O)c1cc2c3c(c1)CC(=O)N3CCC2.Cl` came in with a melting point of 169 to 170 °C.

In turn, `CCOc1ccccc1OCCN1CCC(CCC(=O)c2ccc(OC)c(N)c2)CC1` (as salt: hydrochloride) gave a melting point of 123 to 125 °C.

Take `O=C(CCC1CCN(CCc2ccccc2)CC1)c1cc2c3c(c1)CCN3C(=O)CC2` (as salt: hydrochloride): the melting point was in the range of 219 to 221 °C.

The molecule `CC(Cc1ccccc1)N1CCC(CCC(=O)c2cc3c4c(c2)CCN4C(=O)CC3)CC1.Cl` (racemic) yielded a melting point of 211 to 213 °C.

Consider `Cl.O=C(CCC1CCN(CC(O)c2ccccc2)CC1)c1cc2c3c(c1)CCN3C(=O)CC2` (racemic), for which the melting point lay in the range of 235 to 237 °C.

Molecule `Cl.O=C(CCC1CCN(C2CCc3ccccc32)CC1)c1cc2c3c(c1)CCN3C(=O)CC2` (racemic) showed a melting point of 111 to 113 °C.

For `Cl.O=C(CCC1CCN(C2CCc3ccccc3C2)CC1)c1cc2c3c(c1)CCN3C(=O)CC2` (racemic), the melting point lay within 223 to 225 °C.

Regarding `Cl.O=C(CCCCNC1CCc2ccccc21)c1cc2c3c(c1)CCN3C(=O)CC2` (racemic), the melting point fell in the range of 98 to 100 °C.

For the molecule `Cl.O=C1CCc2cc(C(=O)[C@H]3CC[C@H](CNCCc4ccccc4)CC3)cc3c2N1CC3` (stereo in doubt), the melting point lay in the range of 252 to 254 °C.

For the molecule `CN(CCCCCCN(C)C(=O)Oc1ccc[n+](C)c1)C(=O)Oc1ccc[n+](C)c1` [Distigmine, distigmine, reference compound], the half-maximal inhibitory concentration (IC50) in data set [1] came to 723 nM.

For `O=C(CCC1CCN(CCc2cccc(F)c2)CC1)c1cc2c3c(c1)CCN3C(=O)CC2` [Example 84, 8-(3-[1-[2-(3-Fluorophenyl)ethyl]-4-piperidinyl]propanoyl)-1,2,5,6-tetrahydro-4H-pyrrolo[3,2,1-ij]quinolin-4-one hydrochloride], the IC50 in data set [1] came to 169 nM; in data set [2], 236 nM.

As to `CCOc1ccccc1OCCN[C@H](C)Cc1ccc(OC)c(S(N)(=O)=O)c1` [tamsulosin, Tamsulosin, reference compound], in data set [3] (setting [5]), the “change in bladder internal pressure (ΔPves(Qmax))” value is on record as −3.56 ± 1.09 cmH2O and the “change in maximum urine flow rate (ΔQmax)” value came out at 0.036 ± 0.014 mL/s. Also, in data set [3] (after administration relative to before), the “voiding efficiency (% of pre-value)” value turned out to be 118.5 ± 13.4 %. Further, in data set [4] (0.01 mg/kg, i.v.), the “reduction of blood pressure” value is given as “about 40%”. Moreover, in data set [4] (average blood pressure 15 minutes after i.v. administration, tamsulosin 0.01 mg/kg, Example 20 0.1 mg/kg), the “Blood pressure, after administration” value is reported as 32.9 ± 3.0 mmHg. In data set [4] (average blood pressure just before i.v. administration, tamsulosin 0.01 mg/kg, Example 20 0.1 mg/kg), the “Blood pressure, before administration” value is 54.5 ± 2.5 mmHg.

Take `COc1ccccc1N1CCN(CCCNc2cc(=O)n(C)c(=O)n2C)CC1` [urapidil, reference compound]: the IC50 in data set [2] amounted to 357 nM.

Usually melting point stands for the temperature of the solid-liquid transition. The IC50 is the midpoint of a concentration-inhibition curve.
